Assay results taken from PMC3997483, “Aminostyrylbenzofuran Directly Reduces Oligomeric Amyloid-β and Reverses Cognitive Deficits in Alzheimer Transgenic Mice” (PLoS ONE, 2014).

Tested on: SD rats
Assay: 2-week repeated oral dose toxicity study
Type: in vivo
Conditions: for A / G ratio / ALP / ALT / AST / Albumin / B / C ratio / BUN / CHO / CK / CRE / Glucose / K^+ / LDH / Na^+ / T-Bil / TG (triglyceride) / TP: serum
Protocol: KMS88009 was orally administered once a day by gavage for 14 consecutive days at dose level of 0 (vehicle), 100, 300 and 1,000 mg/kg (n = 5 per group). […] Organs were collected at necropsy; adrenal, kidney, thymus, spleen, heart, lung, liver, testis and brain. The absolute organ weights were measured and the organs-to-body weight ratios were calculated. Blood samples for hematological evaluation were collected from vein of animals under ether anesthesia. Food was withheld overnight before necropsy and blood collections. EDTA was used as an anticoagulant for hematology samples. White blood cell (WBC), red blood cell (RBC), hemoglobin concentration (HGB), hematocrit (HCT), mean corpuscular volume (MCV), mean corpuscular hemoglobin (MCH), mean corpuscular hemoglobin concentration (MCHC), cell hemoglobin concentration mean (CHCM), cell hemoglobin (CH), red cell distribution width (RDW), hemoglobin distribution width (HDW), platelet count (PLT), mean platelet volume (MPV) and reticulocyte were measured by a hematological autoanalyzer (ADVIA 120, Bayer, USA). To get the serum for biochemical analyses, blood samples in a separation tube were centrifuged at 4,000 rpm for 10 min on the day of necropsy. The serum was kept frozen at -70°C until analysis. Sodium citrate was used as an anticoagulant for biochemical analyses. Serum biochemical parameters including aspartate aminotransferase (AST), alanine aminotransferase (ALT), alkaline phosphatase (ALP), total bilirubin (T-Bil), albumin, total protein (TP), albumin/globulin ratio (A/G ratio), glucose, total cholesterol (CHO), triglyceride (TG), lactate dehydrogenase (LDH), creatine kinase (CK), blood urea nitrogen (BUN), creatinine (CRE), blood urea nitrogen/creatinine ratio (B/C ratio), Na^+, K^+ and Cl^- were evaluated by an autoanalyzer (Shimadzu CL-7200, Shimadzu Co., Japan).
All data for single and 2-week repeated oral dose toxicity studies were expressed as the mean ± SD Difference between control and treated groups were evaluated with one-way analysis of variance (ANOVA) followed by Dunnett's test. Value P<0.05 was taken as being statistically significant. Statistical analyses were performed using GraphPad Prism software (USA).

[1] = rats PO 1,000 mg/kg/day, 2 weeks

With `COc1ccc2cc(C=Cc3ccc(N(C)C)cc3)oc2c1` [KMS88009, 6-methoxy-2-(4-dimethylaminostyryl) benzofuran] the Body weight (rats PO 300 mg/kg/day, day 11) was 317.6 ± 17.0 g, the Body weight (rats PO 300 mg/kg/day, day 14) was 338.5 ± 16.9 g and the “Abnormal gross findings of necropsy (changed animals / total)” value [1] was 0 / 5. For the same compound, the Basophils [1] was 0.01 ± 0.01 x10^3/μL, the “Body Weight (at necropsy)” value [1] was 319.932 ± 12.441 g and the Brain weight [1] was 1.922 ± 0.009 g. The CH [1] was 20.0 ± 0.5 pg, the CHCM [1] was 34.1 ± 0.4 g/dL and the Eosinophils [1] was 0.05 ± 0.04 x10^3/μL. The HDW [1] was 2.29 ± 0.09 g/dL, the Heart weight [1] was 1.074 ± 0.065 g and the Hematocrit [1] was 42.1 ± 2.2%. For the same compound, the Hemoglobin [1] was 14.0 ± 0.8 g/dL, the LUC [1] was 0.06 ± 0.04 x10^3/μL and the Left adrenal weight [1] was 0.025 ± 0.004 g. For the same compound, the Left kidney weight [1] was 1.342 ± 0.067 g, the Left testis weight [1] was 1.366 ± 0.053 g and the Liver weight [1] was 11.173 ± 0.202 g. For the same compound, the Lung weight [1] was 1.279 ± 0.094 g, the Lympocytes [1] was 6.50 ± 3.11 x10^3/μL and the MCH [1] was 19.6 ± 0.5 pg. It also gave an MCHC [1] of 33.3 ± 0.6 g/dL, an MCV [1] of 59.0 ± 1.0 fL and an MPV [1] of 7.58 ± 0.3 fL. The Monocytes [1] was 0.13 ± 0.05 x10^3/μL, the “Mortality (dead animals / total number of animals)” value [1] was 0 / 5 and the Neutrophils [1] was 1.08 ± 0.46 x10^3/μL. For the same compound, the Platelet [1] was 1325 ± 141 x10^3/μL, the RBC [1] was 7.14 ± 0.27 x10^6/μL and the RDW [1] was 12.1 ± 0.2%. The “Rate body weight / brain” value [1] was 0.601 ± 0.024%, the “Rate body weight / heart” value [1] was 0.336 ± 0.014% and the “Rate body weight / left adrenal” value [1] was 0.008 ± 0.001%. For the same compound, the “Rate body weight / left kidney” value [1] was 0.420 ± 0.025%, the “Rate body weight / left testis” value [1] was 0.427 ± 0.025% and the “Rate body weight / liver” value [1] was 3.495 ± 0.093%. For the same compound, the “Rate body weight / lung” value [1] was 0.400 ± 0.030%, the “Rate body weight / right adrenal” value [1] was 0.008 ± 0.001% and the “Rate body weight / right kidney” value [1] was 0.418 ± 0.030%. For the same compound, the “Rate body weight / right testis” value [1] was 0.427 ± 0.021%, the “Rate body weight / spleen” value [1] was 0.234 ± 0.031% and the “Rate body weight / thymus” value [1] was 0.194 ± 0.017%. For the same compound, the Retic [1] was 307.4 ± 32.8 x10^3/μL, the Right adrenal weight [1] was 0.026 ± 0.003 g and the Right kidney weight [1] was 1.334 ± 0.067 g. For the same compound, the Right testis weight [1] was 1.365 ± 0.036 g, the Spleen weight [1] was 0.749 ± 0.112 g and the Symptomatic signs [1] was “-”. The Thymus weight [1] was 0.621 ± 0.073 g, the WBC [1] was 7.83 ± 3.64 x10^3/μL and the Body weight (rats PO 1,000 mg/kg/day, day 1) was 228.3 ± 6.5 g. For the same compound, the Body weight (rats PO 1,000 mg/kg/day, day 4) was 251.1 ± 8.6 g, the Body weight (rats PO 1,000 mg/kg/day, day 8) was 296.4 ± 14.2 g and the Body weight (rats PO 1,000 mg/kg/day, day 11) was 323.0 ± 15.8 g. The Body weight (rats PO 1,000 mg/kg/day, day 14) was 346.6 ± 16.1 g, the “A / G ratio” value (rats PO 100 mg/kg/day, 2 weeks) was 0.82 ± 0.08 and the ALP (rats PO 100 mg/kg/day, 2 weeks) was 723.4 ± 40.3 IU/L. The ALT (rats PO 100 mg/kg/day, 2 weeks) was 37.3 ± 6.2 IU/L, the AST (rats PO 100 mg/kg/day, 2 weeks) was 152.3 ± 47.1 IU/L and the Albumin (rats PO 100 mg/kg/day, 2 weeks) was 2.52 ± 0.18 g/dL. For the same compound, the “B / C ratio” value (rats PO 100 mg/kg/day, 2 weeks) was 28.3 ± 6.1, the BUN (rats PO 100 mg/kg/day, 2 weeks) was 12.2 ± 1.5 mg/dL and the CHO (rats PO 100 mg/kg/day, 2 weeks) was 79.4 ± 15.2 mg/dL. The CK (rats PO 100 mg/kg/day, 2 weeks) was 258.4 ± 54.3 IU/L, the CRE (rats PO 100 mg/kg/day, 2 weeks) was 0.44 ± 0.05 mg/dL and the Glucose (rats PO 100 mg/kg/day, 2 weeks) was 159.2 ± 23.5 mg/dL. The “K^+” value (rats PO 100 mg/kg/day, 2 weeks) was 4.58 ± 0.43 mmol/L, the LDH (rats PO 100 mg/kg/day, 2 weeks) was 168.0 ± 36.4 IU/L and the “Na^+” value (rats PO 100 mg/kg/day, 2 weeks) was 140.5 ± 1.2 mmol/L. For the same compound, the T-Bil (rats PO 100 mg/kg/day, 2 weeks) was 0.01 ± 0.01 mg/dL, the “TG (triglyceride)” value (rats PO 100 mg/kg/day, 2 weeks) was 47.0 ± 29.5 mg/dL and the TP (rats PO 100 mg/kg/day, 2 weeks) was 5.66 ± 0.17 g/dL. The “A / G ratio” value (rats PO 300 mg/kg/day, 2 weeks) was 0.77 ± 0.06, the ALP (rats PO 300 mg/kg/day, 2 weeks) was 755.6 ± 165.7 IU/L and the ALT (rats PO 300 mg/kg/day, 2 weeks) was 32.9 ± 4.7 IU/L. For the same compound, the AST (rats PO 300 mg/kg/day, 2 weeks) was 149.2 ± 24.3 IU/L, the Albumin (rats PO 300 mg/kg/day, 2 weeks) was 2.4 ± 0.00 g/dL and the “B / C ratio” value (rats PO 300 mg/kg/day, 2 weeks) was 29.6 ± 8.1. For the same compound, the BUN (rats PO 300 mg/kg/day, 2 weeks) was 12.3 ± 2.8 mg/dL, the CHO (rats PO 300 mg/kg/day, 2 weeks) was 81.8 ± 11.6 mg/dL and the CK (rats PO 300 mg/kg/day, 2 weeks) was 222.0 ± 56.7 IU/L. The CRE (rats PO 300 mg/kg/day, 2 weeks) was 0.42 ± 0.04 mg/dL, the Glucose (rats PO 300 mg/kg/day, 2 weeks) was 148.0 ± 23.5 mg/dL and the “K^+” value (rats PO 300 mg/kg/day, 2 weeks) was 4.73 ± 0.26 mmol/L. The LDH (rats PO 300 mg/kg/day, 2 weeks) was 127.2 ± 47.0 IU/L, the “Na^+” value (rats PO 300 mg/kg/day, 2 weeks) was 139.8 ± 1.8 mmol/L and the T-Bil (rats PO 300 mg/kg/day, 2 weeks) was 0.02 ± 0.01 mg/dL. For the same compound, the “TG (triglyceride)” value (rats PO 300 mg/kg/day, 2 weeks) was 29.4 ± 7.2 mg/dL, the TP (rats PO 300 mg/kg/day, 2 weeks) was 5.56 ± 0.23 g/dL and the “A / G ratio” value [1] was 0.76 ± 0.04. For the same compound, the ALP [1] was 736.0 ± 109.1 IU/L, the ALT [1] was 32.7 ± 7.8 IU/L and the AST [1] was 162.0 ± 19.1 IU/L. For the same compound, the Albumin [1] was 2.44 ± 0.05 g/dL, the “B / C ratio” value [1] was 29.7 ± 2.0 and the BUN [1] was 11.9 ± 0.8 mg/dL. The CHO [1] was 80.4 ± 18.2 mg/dL, the CK [1] was 260.2 ± 62.0 IU/L and the CRE [1] was 0.4 ± 0.00 mg/dL. The Glucose [1] was 141.3 ± 15.6 mg/dL, the “K^+” value [1] was 4.87 ± 0.22 mmol/L and the LDH [1] was 126.0 ± 53.9 IU/L. For the same compound, the “Na^+” value [1] was 140.1 ± 1.2 mmol/L, the T-Bil [1] was 0.02 ± 0.01 mg/dL and the “TG (triglyceride)” value [1] was 30.8 ± 7.7 mg/dL. It also gave a TP [1] of 5.62 ± 0.19 g/dL.
